Results taken from patent publication US11926583B2, “Stabilized 1, 25-dihydroxyvitamin D2 and method of making same” (CYTOCHROMA INC., priority 2008, dated 2024).

Experiment: Accelerated stability testing at 60° C., purity by HPLC
Format: physicochemical
Details: for Purity (absolute %) / Purity (% of initial amount): At 60° C.
Protocol: The HPLC analysis can suitably follow the parameters in Table 2 below.
Samples of stabilized 1,25-dihydroxyvitamin D2 according to Example 1 and commercially-obtained 1,25-dihydroxyvitamin D2 (SAFC, Madison, Wis. USA) made by crystallization from methyl formate were placed in a 60° C. oven in several 2 ml amber vials with Teflon-lined caps. Samples were taken out at different time points and purity was checked by HPLC according to Example 1. The results are presented in Tables 3 and 4 below and in FIGS. 1 and 2. […] The stabilized material prepared according to the Example 1 will clearly have advantage when any heat is required during formulation.

| SMILES | Purity (absolute %) (0 h) | Purity (% of initial amount) (4 h) | Purity (absolute %) (4 h) | Purity (% of initial amount) (8 h) | Purity (absolute %) (8 h) | Purity (% of initial amount) (16 h) | Purity (absolute %) (16 h) | Purity (% of initial amount) (24 h) | Purity (absolute %) (24 h) | Purity (% of initial amount) (48 h) | Purity (absolute %) (48 h) | Purity (% of initial amount) (72 h) | Purity (absolute %) (72 h) | Purity (% of initial amount) (Initial %) | Stability compared to commercially available material containing residual methyl formate (60° C., up to 72 hours) |
| --- | --- | --- | --- | --- | --- | --- | --- | --- | --- | --- | --- | --- | --- | --- | --- |
| C=C1/C(=C\C=C2/CCC[C@]3(C)[C@@H]([C@H](C)/C=C/[C@H](C)C(C)(C)O)CC[C@@H]23)C[C@@H](O)C[C@@H]1O [Commercial, 1,25-dihydroxyvitamin D2] | 96.80% | 98.33% | 95.18% | 98.12% | 94.98% | 97.82% | 94.69% | 97.09% | 93.98% | 96.97% | 93.86% | 96.92% | 93.82% | 100% |  |
| C=C1/C(=C\C=C2/CCC[C@]3(C)[C@@H]([C@H](C)/C=C/[C@H](C)C(C)(C)O)CC[C@@H]23)C[C@@H](O)C[C@@H]1O [Example 1, 1,25-dihydroxyvitamin D2] | 99.40% | 99.98% | 99.38% | 100% | 99.42% | 99.93% | 99.33% | 100% | 99.42% | 99.90% | 99.31% | 99.50% | 98.89% |  | surprisingly more stable |
